This is an account of results in ChEMBL document CHEMBL4219252, “Synthesis, antimycobacterial activity and influence on mycobacterial InhA and PknB of 12-membered cyclodepsipeptides” (Bioorg Med Chem, 2018).

Values after ≈ are worked out from the molar mass of the structure shown. Active and inactive are the calls of the source. The rule behind the calls is not given here.

One test relates to Escherichia coli. Briefly: Antibacterial activity against Escherichia coli SG458 incubated overnight at 37 degC measured after 24 hrs by agar diffusion method. Format: functional, organism-based. In general terms: In agar diffusion tests the substance spreads into inoculated agar from a disc or well.
For test [1], the system named is Sporobolomyces salmonicolor. Briefly: Antifungal activity against Sporobolomyces salmonicolor 549 incubated overnight at 30 degC measured after 24 hrs by agar diffusion method. Format: functional, organism-based.
The test system of a further test is Bacillus spizizenii. Briefly: Antibacterial activity against Bacillus subtilis ATCC 6633 incubated overnight at 37 degC measured after 24 hrs by agar diffusion method. In kind it is functional, organism-based.
For test [2], the target named is T1, Serine/threonine-protein kinase PknB (Mycobacterium tuberculosis) (UniProt P9WI81).
T1 sequence (whole entry): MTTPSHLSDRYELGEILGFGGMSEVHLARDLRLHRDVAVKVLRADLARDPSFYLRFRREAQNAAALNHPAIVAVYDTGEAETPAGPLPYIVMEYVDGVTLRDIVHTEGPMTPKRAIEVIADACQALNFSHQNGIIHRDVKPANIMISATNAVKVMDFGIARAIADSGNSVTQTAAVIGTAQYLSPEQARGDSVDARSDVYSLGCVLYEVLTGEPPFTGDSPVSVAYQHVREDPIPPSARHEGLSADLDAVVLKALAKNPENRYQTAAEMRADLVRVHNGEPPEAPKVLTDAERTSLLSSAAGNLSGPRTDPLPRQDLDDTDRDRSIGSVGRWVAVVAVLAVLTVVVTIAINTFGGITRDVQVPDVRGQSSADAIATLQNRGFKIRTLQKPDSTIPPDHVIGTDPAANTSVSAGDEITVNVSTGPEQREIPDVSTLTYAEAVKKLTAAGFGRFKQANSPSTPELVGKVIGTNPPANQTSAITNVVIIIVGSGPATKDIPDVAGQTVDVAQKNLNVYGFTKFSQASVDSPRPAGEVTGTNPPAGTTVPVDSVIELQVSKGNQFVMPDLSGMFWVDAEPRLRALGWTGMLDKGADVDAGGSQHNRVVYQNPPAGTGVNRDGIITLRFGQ
Briefly: Inhibition of Mycobacterium tuberculosis GST-tagged PknB expressed in Escherichia coli assessed as reduction in PknB autophosphorylation at 0.24 to 4.8 uM preincubated for 30 mins followed by [gamma32P]ATP addition measured after 30 mins by scintillation counting method.

Test [3] has as its system Mycobacterium tuberculosis. Briefly: Antimycobacterial activity against Mycobacterium tuberculosis H37Rv after 7 days by BacTiter-Glo microbial cell viability assay. In kind it is functional.
Test [4] concerns Mycolicibacterium smegmatis. Briefly: Antimycobacterial activity against Mycobacterium smegmatis SG987 after 48 hrs by resazurin microtiter assay. Format: functional. In general terms: The colour change of resazurin is a common sign of viable cells or microbes.
Test [5] deals with T1, Serine/threonine-protein kinase PknB (Mycobacterium tuberculosis). Briefly: Induction of Mycobacterium tuberculosis GST-tagged PknB autophosphorylation expressed in Escherichia coli at 4.8 uM preincubated for 30 mins followed by [gamma32P]ATP addition measured after 30 mins by scintillation counting method relative to control.
Test [6] relates to Mycolicibacterium smegmatis. Briefly: Antimycobacterial activity against Mycobacterium smegmatis SG987 incubated overnight at 37 degC measured after 24 hrs by agar diffusion method. In kind it is functional.
The next test deals with Mycolicibacterium vaccae. Briefly: Antimycobacterial activity against Mycobacterium vaccae IMET 10670 incubated overnight at 37 degC measured after 24 hrs by agar diffusion method. In kind it is functional.
The target of test [7] is T1, Serine/threonine-protein kinase PknB (Mycobacterium tuberculosis). Briefly: Inhibition of Mycobacterium tuberculosis GST-tagged PknB expressed in Escherichia coli assessed as reduction in PknB autophosphorylation at 4.8 uM preincubated for 30 mins followed by [gamma32P]ATP addition measured after 30 mins by scintillation counting method relative to control.
The next test concerns Mycolicibacterium aurum. Briefly: Antimycobacterial activity against Mycobacterium aurum SB66 incubated overnight at 37 degC measured after 24 hrs by agar diffusion method. In kind it is functional.
Setting [8] is: Mycobacterium tuberculosis, H37Rv, 168 h, read-out: MIC.

As to `C[C@@H](OCc1ccccc1)C(=O)O[C@H](C)[C@H](NC(=O)c1ncccc1O)C(=O)NCCCC(=O)OCc1ccccc1`, the outcome (in the test on Escherichia coli; in test [1]; with Bacillus spizizenii) was inactive.
Regarding `C[C@@H](OC(=O)COCc1ccccc1)[C@H](NC(=O)c1ncccc1O)C(=O)NCCCC(=O)OCc1ccccc1`, the outcome (in the test with Escherichia coli; in [1]; in the test with Bacillus spizizenii) was inactive.
For the molecule `C[C@H]1OC(=O)c2ccccc2OC(=O)CCNC(=O)[C@H]1NC(=O)OC(C)(C)C`, the result (with Escherichia coli; in test [1]; in the test on Bacillus spizizenii) was inactive.
Turning to `CC/C(C)=C1\OC(=O)[C@H](C)[C@@H](O)[C@H](Cc2cccnc2)NC(=O)[C@@H](NC(=O)c2ncccc2O)[C@@H](C)OC1=O`, the inhibition (commonly the drop in the measured response relative to a control, in per cent) in [2] was “inactive”.
Turning to `C[C@H]1OC(=O)CCC(Cc2ccccc2)NC(=O)[C@@H](NC(=O)OC(C)(C)C)[C@@H](C)OC1=O` (stereo in doubt; form 1), the result (in the test with Escherichia coli; in test [1]; with Bacillus spizizenii) was inactive.
As to `CC[C@H](C)[C@@H]1NC(=O)C[C@H](CC(C)C)CNC(=O)[C@@H](NC(=O)c2ccccn2)[C@@H](C)OC1=O`, the result (in the test with Escherichia coli; in test [3]; in [1]; in [4]; with Bacillus spizizenii) was inactive.
For the molecule `C[C@H]1OC(=O)CCC(Cc2ccccc2)NC(=O)[C@@H](NC(=O)OC(C)(C)C)[C@@H](C)OC1=O` (stereo in doubt; form 2) [listing 1 of 2 here], in test [5], the Activity amounted to 60%. The molecule further came in with a fold change (FC) in test [5] of 2. Further, in [2], the inhibition result is “inactive”. In addition, the result (in the test on Escherichia coli; in test [1]; in the test on Bacillus spizizenii) was inactive.
On to `NNC(=O)c1ccncc1` [ISONIAZID], for which the MIC (commonly the least concentration at which growth counts as inhibited) in test [3] (setting [8]) was 0.31 µM (≈ 0.0425 µg/mL); in test [4] (Mycolicibacterium smegmatis, SG987, 48 h, read-out: MIC), 29.2 µM (≈ 4 µg/mL).
On to `COC(=O)CCC(Cc1ccccc1)NC(=O)[C@@H](NC(=O)OC(C)(C)C)[C@@H](C)OC(=O)[C@@H](C)O` (some centres not stated), for which the outcome (in [6]; in the test on Mycolicibacterium vaccae; with Escherichia coli; in test [1]; in the test on Bacillus spizizenii) was inactive. Also, the inhibition entry in test [2] is “inactive”.
Consider `C[C@@H](OC(=O)COCc1ccccc1)[C@H](NC(=O)c1ccccc1O)C(=O)NCCCC(=O)OCc1ccccc1`, for which the outcome (in the test with Escherichia coli; in test [1]; in the test on Bacillus spizizenii) was inactive.
With `C[C@@H](OC(=O)COCc1ccccc1)[C@H](NC(=O)c1ncccc1F)C(=O)NCCCC(=O)OCc1ccccc1`, the outcome (in the test with Escherichia coli; in test [1]; in the test with Bacillus spizizenii) was inactive.
As to `C[C@@H](OCc1ccccc1)C(=O)O[C@H](C)[C@H](NC(=O)c1ncccc1F)C(=O)NCCCC(=O)OCc1ccccc1`, the result (with Escherichia coli; in [1]; in the test with Bacillus spizizenii) was inactive.
As for `C[C@H]1OC(=O)CCCNC(=O)[C@@H](NC(=O)c2ccccn2)[C@@H](C)OC1=O`, the outcome (in the test with Escherichia coli; in test [1]; with Bacillus spizizenii) was inactive.
With `C[C@@H](OCc1ccccc1)C(=O)O[C@H](C)[C@H](NC(=O)c1ccccc1O)C(=O)NCCCC(=O)OCc1ccccc1`, the outcome (in the test on Escherichia coli; in [1]; with Bacillus spizizenii) was inactive.
With `C[C@@H](OC(=O)COCc1ccccc1)[C@H](NC(=O)c1ccccn1)C(=O)NCCCC(=O)OCc1ccccc1`, the result (in the test on Escherichia coli; in [1]; with Bacillus spizizenii) was inactive.
For the molecule `C[C@H]1OC(=O)COC(=O)CCC(Cc2ccccc2)NC(=O)[C@H]1NC(=O)OC(C)(C)C` (stereo in doubt; form 1) [listing 1 of 2 here], the inhibition in [7] was 60%. Also, the outcome (in the test on Escherichia coli; in test [1]; in the test with Bacillus spizizenii) was inactive.
Regarding `C[C@@H](O)C(=O)O[C@H](C)[C@H](NC(=O)OC(C)(C)C)C(=O)NC(CCC(=O)O)Cc1ccccc1` (some centres not stated), the result in test [3] and in test [4] was inactive.
On to `C[C@@H](OC(=O)CO)[C@H](NC(=O)OC(C)(C)C)C(=O)NC(CCC(=O)O)Cc1ccccc1` (some centres not stated), for which the outcome in [3] and in test [4] was inactive.
Turning to `C[C@H]1OC(=O)COC(=O)CCCNC(=O)[C@H]1NC(=O)c1ccccn1`, the outcome (with Escherichia coli; in [1]; in the test on Bacillus spizizenii) was inactive.
Consider `C[C@H]1OC(=O)c2ccccc2OC(=O)CCNC(=O)[C@H]1NC(=O)c1ncccc1O`, for which the result (in the test with Escherichia coli; in [3]; in [1]; in test [4]; with Bacillus spizizenii) was inactive.
On to `C[C@H]1OC(=O)COC(=O)CCCNC(=O)[C@H]1NC(=O)c1ncccc1O`, for which the outcome (in the test on Escherichia coli; in test [1]; in the test on Bacillus spizizenii) was inactive.
For the molecule `C[C@H]1OC(=O)CCCNC(=O)[C@@H](NC(=O)c2ncccc2O)[C@@H](C)OC1=O`, the result (in the test on Escherichia coli; in test [1]; in the test with Bacillus spizizenii) was inactive.
On to `C[C@@H](OCc1ccccc1)C(=O)O[C@H](C)[C@H](NC(=O)c1ccccn1)C(=O)NCCCC(=O)OCc1ccccc1`, for which the result (with Escherichia coli; in [1]; in the test with Bacillus spizizenii) was inactive.
Consider `C[C@H]1OC(=O)COC(=O)CCC(Cc2ccccc2)NC(=O)[C@H]1NC(=O)OC(C)(C)C` (stereo in doubt; form 1) [listing 2 of 2 here], for which the “diameter of the inhibition zone (DIZ)” value in [6] was 17 mm; in the test with Mycolicibacterium vaccae, 20 - 26 mm. The MIC was 8 µM (≈ 3.48 µg/mL) in test [3] and 28.8 µM (≈ 12.5 µg/mL) in [4].
For the molecule `C[C@H]1OC(=O)COC(=O)CCC(Cc2ccccc2)NC(=O)[C@H]1NC(=O)OC(C)(C)C` (stereo in doubt; form 2), the inhibition in test [7] was found to be 60%. Besides, the outcome (in the test on Escherichia coli; in [1]; with Bacillus spizizenii) was inactive.
Consider `C[C@H]1OC(=O)CCC(Cc2ccccc2)NC(=O)[C@@H](NC(=O)OC(C)(C)C)[C@@H](C)OC1=O` (stereo in doubt; form 2) [listing 2 of 2 here], for which the “diameter of the inhibition zone (DIZ)” value (in test [6]; in the test on Mycolicibacterium vaccae; in the test on Mycolicibacterium aurum) was 0 mm throughout. Besides, in test [3] (setting [8]), the MIC stood at 125 µM (≈ 56.1 µg/mL).
